The subject of experiment [1] is Escherichia coli. Put plainly: Antibacterial activity against Escherichia coli K-12 by microbroth dilution method. It counts as functional.
In another experiment the test system is Proteus mirabilis. As to the kind of experiment: Antibacterial activity against Proteus mirabilis ATCC 25933 by microbroth dilution method. Format: functional. For orientation: In broth dilution the organism is exposed to a series of concentrations in liquid medium.
A further experiment concerns Bacillus anthracis. As to the kind of experiment: Antibacterial activity against Bacillus anthracis Sterne 34F2 by microbroth dilution method. It counts as functional.
The subject of a further experiment is Pseudomonas aeruginosa. As to the kind of experiment: Antibacterial activity against Pseudomonas aeruginosa PAO1 by microbroth dilution method. It counts as functional.
The next experiment has as its system Burkholderia cepacia. As to the kind of experiment: Antibacterial activity against Burkholderia cepacia ATCC 25416 by microbroth dilution method. Format: functional.
In the next experiment the test system is Bacillus subtilis. Put plainly: Antibacterial activity against Bacillus subtilis ATCC 23857 by microbroth dilution method. It counts as functional.
The test system of another experiment is Klebsiella pneumoniae. As to the kind of experiment: Antibacterial activity against Klebsiella pneumoniae ATCC 33495 by microbroth dilution method. Format: functional.
The test system of a further experiment is Acinetobacter baumannii. Put plainly: Antibacterial activity against Acinetobacter baumannii ATCC 19606 by microbroth dilution method. Format: functional, ATCC 19606 = CIP 70.34 = JCM 6841.
Another experiment relates to Streptococcus pneumoniae. Put plainly: Antibacterial activity against Streptococcus pneumoniae R6 by microbroth dilution method. It counts as functional.
The next experiment concerns Enterococcus faecalis. As to the kind of experiment: Antibacterial activity against Enterococcus faecalis ATCC 33186 by microbroth dilution method. It counts as functional.
The test system of experiment [2] is Staphylococcus aureus. As to the kind of experiment: Antibacterial activity against methicillin-sensitive Staphylococcus aureus ATCC 29213 by microbroth dilution method. It counts as functional.
In another experiment the test system is Streptococcus pyogenes. As to the kind of experiment: Antibacterial activity against Streptococcus pyogenes ATCC 700294 by microbroth dilution method. It counts as functional.
Experiment [3] has as its system Escherichia coli. Put plainly: Antibacterial activity against Escherichia coli harboring TolC deletion mutant by microbroth dilution method. It counts as functional.
In experiment [4] the test system is Staphylococcus aureus. Put plainly: Antibacterial activity against methicillin-resistant Staphylococcus aureus NRS70 by microbroth dilution method. Format: functional.
Another experiment has as its system Proteus vulgaris. As to the kind of experiment: Antibacterial activity against Proteus vulgaris ATCC 33420 by microbroth dilution method. Format: functional.
In experiment [5] the test system is Mycobacterium tuberculosis. As to the kind of experiment: Antitubercular activity against Mycobacterium tuberculosis H37Rv by microbroth dilution method. It counts as functional.
Where [6] appears, read: Bacillus anthracis, Sterne 34F2, read-out: MIC.
The mark [7] stands for this setting: Bacillus subtilis, ATCC 23857, read-out: MIC.
[8] abbreviates: Acinetobacter baumannii, ATCC 19606 = CIP 70.34 = JCM 6841, read-out: MIC.
Setting [9] is: Streptococcus pneumoniae, R6, read-out: MIC.
[10] abbreviates: Enterococcus faecalis, ATCC 33186, read-out: MIC.
Where [11] appears, read: Staphylococcus aureus, ATCC 29213, read-out: MIC.
The mark [12] stands for this setting: Streptococcus pyogenes, ATCC 700294, read-out: MIC.
[13] abbreviates: Escherichia coli, read-out: MIC.
The mark [14] stands for this setting: Staphylococcus aureus, NRS70, read-out: MIC.
[15] abbreviates: Mycobacterium tuberculosis, H37Rv, read-out: MIC.

In brackets after ≈: the same amount, converted by molar mass.

The MIC is the smallest concentration in the dilution series that meets the test's criterion for growth inhibition. Regarding `COc1cc2ccc1Oc1cc(ccc1OC)CCCCC(NCCc1ccc(F)cc1)CC2` (stereo unspecified), the MIC was over 100 µg/mL in the experiment on Escherichia coli [1]; over 100 µg/mL in the experiment with Proteus mirabilis; 50 µg/mL (≈ 108 µM) in the experiment with Bacillus anthracis (setting [6]); over 100 µg/mL in the experiment on Pseudomonas aeruginosa; over 100 µg/mL in the experiment on Burkholderia cepacia; 12.5 µg/mL (≈ 27 µM) with Bacillus subtilis (setting [7]). In addition, the MIC in the experiment with Klebsiella pneumoniae is over 100 µg/mL; with Acinetobacter baumannii (setting [8]), 100 µg/mL (≈ 216 µM); in the experiment with Streptococcus pneumoniae (setting [9]) it was 25 µg/mL (≈ 53.9 µM); in the experiment on Enterococcus faecalis (setting [10]), 25 µg/mL (≈ 53.9 µM); in the experiment on Staphylococcus aureus [2] (setting [11]) it was 25 µg/mL (≈ 53.9 µM); with Streptococcus pyogenes (setting [12]), 50 µg/mL (≈ 108 µM). Further, the MIC with Escherichia coli [3] (setting [13]) was 25 µg/mL (≈ 53.9 µM); in the experiment with Staphylococcus aureus [4] (setting [14]), 25 µg/mL (≈ 53.9 µM); with Proteus vulgaris, over 100 µg/mL; in [5] (setting [15]), 25 µg/mL (≈ 53.9 µM).

For the compound `COc1ccc2cc1Oc1cc(ccc1OC)CCC(NC(=O)NCCc1ccccc1)CCCC2` (stereo unspecified), the MIC against Escherichia coli [1], in the experiment with Proteus mirabilis, in the experiment on Bacillus anthracis (setting [6]), in the experiment on Pseudomonas aeruginosa, against Burkholderia cepacia and with Bacillus subtilis (setting [7]) was over 100 µg/mL each time. The minimal inhibitory concentration (MIC) against Klebsiella pneumoniae, in the experiment with Acinetobacter baumannii (setting [8]), in the experiment on Streptococcus pneumoniae (setting [9]), in the experiment on Enterococcus faecalis (setting [10]), in the experiment with Staphylococcus aureus [2] (setting [11]) and in the experiment with Streptococcus pyogenes (setting [12]) was over 100 µg/mL in each case. Also, the minimal inhibitory concentration (MIC) (with Escherichia coli [3] (setting [13]); in the experiment with Staphylococcus aureus [4] (setting [14]); in the experiment on Proteus vulgaris; in experiment [5] (setting [15])) was over 100 µg/mL in each case.

Turning to `NNC(=O)c1ccncc1` [ISONIAZID], in experiment [5] (setting [15]), the MIC amounted to 0.03 µg/mL (≈ 0.219 µM).

Take `COc1ccc2cc1Oc1cc(ccc1OC)CCC(NCCc1cccc(F)c1)CCCC2` (stereo unspecified): the minimal inhibitory concentration (MIC) against Escherichia coli [1] was over 100 µg/mL; with Proteus mirabilis, over 100 µg/mL; in the experiment on Bacillus anthracis (setting [6]), 50 µg/mL (≈ 108 µM); against Pseudomonas aeruginosa, over 100 µg/mL; with Burkholderia cepacia, over 100 µg/mL; with Bacillus subtilis (setting [7]) it was 12.5 µg/mL (≈ 27 µM). Besides, the MIC against Klebsiella pneumoniae was over 100 µg/mL; in the experiment with Acinetobacter baumannii (setting [8]), 50 µg/mL (≈ 108 µM); with Streptococcus pneumoniae (setting [9]) it was 50 µg/mL (≈ 108 µM); in the experiment with Enterococcus faecalis (setting [10]) it was 25 µg/mL (≈ 53.9 µM); in the experiment with Staphylococcus aureus [2] (setting [11]), 50 µg/mL (≈ 108 µM); in the experiment with Streptococcus pyogenes (setting [12]), 50 µg/mL (≈ 108 µM). For the same compound, the minimum inhibitory concentration (MIC) in the experiment on Escherichia coli [3] (setting [13]) is 25 µg/mL (≈ 53.9 µM); in the experiment on Staphylococcus aureus [4] (setting [14]), 25 µg/mL (≈ 53.9 µM); in the experiment on Proteus vulgaris, over 100 µg/mL; in [5] (setting [15]) it was 25 µg/mL (≈ 53.9 µM).

For the compound `O=C(N[C@H](CO)[C@H](O)c1ccc([N+](=O)[O-])cc1)C(Cl)Cl` [CHLORAMPHENICOL], the minimum inhibitory concentration (MIC) in the experiment on Escherichia coli [1] is 6.25 µg/mL (≈ 19.3 µM); in the experiment with Proteus mirabilis, over 100 µg/mL; in the experiment with Bacillus anthracis (setting [6]), 3.12 µg/mL (≈ 9.67 µM); against Pseudomonas aeruginosa, over 100 µg/mL; in the experiment with Burkholderia cepacia, over 100 µg/mL; with Bacillus subtilis (setting [7]) it was 6.25 µg/mL (≈ 19.3 µM). For the same compound, the MIC in the experiment with Klebsiella pneumoniae is over 100 µg/mL; in the experiment with Acinetobacter baumannii (setting [8]), 50 µg/mL (≈ 155 µM); with Streptococcus pneumoniae (setting [9]) it was 1.56 µg/mL (≈ 4.83 µM); with Staphylococcus aureus [2] (setting [11]), 6.25 µg/mL (≈ 19.3 µM); in the experiment with Streptococcus pyogenes (setting [12]), 3.12 µg/mL (≈ 9.67 µM); with Escherichia coli [3] (setting [13]), 0.78 µg/mL (≈ 2.41 µM). Further, the MIC with Staphylococcus aureus [4] (setting [14]) was 3.12 µg/mL (≈ 9.67 µM); in the experiment with Proteus vulgaris, over 100 µg/mL.

Regarding `COc1ccc2cc1Oc1cc(ccc1OC)CCC(NCCc1ccccc1)CCCC2` (stereo unspecified), the minimum inhibitory concentration (MIC) in experiment [5] (setting [15]) is 12.5 to 50 µg/mL (≈ 28.1 to 112 µM).

As to `COc1ccc2cc1Oc1cc(ccc1OC)CCC(N[C@H]1CCCc3ccccc31)CCCC2` (stereo in doubt; 27), the MIC in the experiment on Escherichia coli [1], against Proteus mirabilis, in the experiment with Bacillus anthracis (setting [6]), with Pseudomonas aeruginosa, in the experiment with Burkholderia cepacia and in the experiment on Bacillus subtilis (setting [7]) was over 100 µg/mL each time. The MIC in the experiment with Klebsiella pneumoniae, in the experiment on Acinetobacter baumannii (setting [8]), with Streptococcus pneumoniae (setting [9]), in the experiment on Enterococcus faecalis (setting [10]), in the experiment with Streptococcus pyogenes (setting [12]) and with Escherichia coli [3] was over 100 µg/mL each time. Further, the MIC with Staphylococcus aureus [4] (setting [14]) and against Proteus vulgaris was over 100 µg/mL throughout.

With `COc1ccc2cc1Oc1cc(ccc1OC)CCC(N[C@@H]1CCCc3ccccc31)CCCC2` (stereo in doubt; 26), the MIC in the experiment on Bacillus subtilis was 25 µg/mL (≈ 53 µM); with Acinetobacter baumannii, over 100 µg/mL; against Streptococcus pneumoniae, 50 µg/mL (≈ 106 µM); with Escherichia coli [3], 25 µg/mL (≈ 53 µM); in experiment [5], 50 µg/mL (≈ 106 µM).

For `COc1ccc2cc1Oc1cc(ccc1OC)CCC(N[C@H]1CCCc3ccccc31)CCCC2` (stereo in doubt; 28), the MIC in the experiment with Bacillus anthracis, against Bacillus subtilis, in the experiment on Streptococcus pneumoniae, in the experiment on Enterococcus faecalis, with Staphylococcus aureus [2] and against Streptococcus pyogenes was over 100 µg/mL throughout. The figures for the minimal inhibitory concentration (MIC) in the experiment on Escherichia coli [3] and with Staphylococcus aureus [4] were 25 µg/mL (≈ 53 µM) and over 100 µg/mL, respectively.

The values above are taken from ChEMBL document CHEMBL4477227, “Synthesis and antibacterial evaluation of macrocyclic diarylheptanoid derivatives” (Bioorg Med Chem Lett, 2016).
